# Data from patent publication US6737383B1, “Herbicidal oxadiazolidines” (priority 1999, dated 2004).
# Tests used:
# bedstraw = experiment: Test B pre/postemergence bedstraw; assay type: in vivo, Galium aparine; conditions: Postemergence, Rate 31 g/ha; visual rating, scale 0 to 10 (0 no effect, 10 complete control)
# Procedure, shortened: (§1)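 Herbicidal effect was estimated by eye on a ten-point control scale after plants spent twelve to sixteen days in a greenhouse following soil or foliar treatment. Foliar sprays targeted plants at one to four leaves; all doses were formulated in a non-phytotoxic solvent with surfactant.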
# blackgrass = experiment: Test B pre/postemergence blackgrass; assay type: in vivo, Alopecurus myosuroides; conditions: for Plant response rating, Blackgrass: scale of 0 to 10 where 0 is no effect and 10 is complete control
# Procedure, shortened: as §1
# surinam grass = experiment: Test B pre/postemergence surinam grass; assay type: in vivo, Brachiaria decumbens; conditions: for Plant response rating, B. signalgrass: scale of 0 to 10 where 0 is no effect and 10 is complete control
# Procedure, shortened: as §1
# cocklebur = experiment: Test B pre/postemergence cocklebur; assay type: in vivo, Xanthium strumarium; conditions: for Plant response rating, Cocklebur: scale of 0 to 10 where 0 is no effect and 10 is complete control
# Procedure, shortened: as §1
# corn = experiment: Test B pre/postemergence corn; assay type: in vivo, Zea mays; conditions: for Plant response rating, Corn: scale of 0 to 10 where 0 is no effect and 10 is complete control
# Procedure, shortened: as §1
# crabgrass = experiment: Test B pre/postemergence crabgrass; assay type: in vivo, Digitaria sanguinalis; conditions: for Plant response rating, Crabgrass: scale of 0 to 10 where 0 is no effect and 10 is complete control
# Procedure, shortened: as §1
# pigweed = experiment: Test B pre/postemergence pigweed; assay type: in vivo, Amaranthus retroflexus; conditions: for Plant response rating, Redroot pigweed: scale of 0 to 10 where 0 is no effect and 10 is complete control
# Procedure, shortened: as §1
# rape = experiment: Test B pre/postemergence rape; assay type: in vivo, Brassica napus; conditions: for Plant response rating, Rape: scale of 0 to 10 where 0 is no effect and 10 is complete control
# Procedure, shortened: as §1
# soybean = experiment: Test B pre/postemergence soybean; assay type: in vivo, Glycine max; conditions: for Plant response rating, Soybean: scale of 0 to 10 where 0 is no effect and 10 is complete control
# Procedure, shortened: as §1
# sugar beet = experiment: Test B pre/postemergence sugar beet; assay type: in vivo, Beta vulgaris; conditions: for Plant response rating, Sugarbeets: scale of 0 to 10 where 0 is no effect and 10 is complete control
# Procedure, shortened: as §1
# velvetleaf = experiment: Test B pre/postemergence velvetleaf; assay type: in vivo, Abutilon theophrasti; conditions: for Plant response rating, Velvetleaf: scale of 0 to 10 where 0 is no effect and 10 is complete control
# Procedure, shortened: as §1
# wheat = experiment: Test B pre/postemergence wheat; assay type: in vivo, Triticum aestivum; conditions: for Plant response rating, Wheat: scale of 0 to 10 where 0 is no effect and 10 is complete control
# Procedure, shortened: as §1
# wild oat = experiment: Test B pre/postemergence wild oat; assay type: in vivo, Avena fatua; conditions: for Plant response rating, Wild oats: scale of 0 to 10 where 0 is no effect and 10 is complete control
# Procedure, shortened: as §1
# purple nutsedge = experiment: Test B pre/postemergence purple nutsedge; assay type: in vivo, Cyperus rotundus; conditions: for Plant response rating, Nutsedge: scale of 0 to 10 where 0 is no effect and 10 is complete control
# Procedure, shortened: as §1
# smallflower flatsedge = experiment: Test B flood test smallflower flatsedge; assay type: in vivo, Cyperus difformis
# Procedure, shortened: (§2)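 Plants were grown to the 2-leaf stage before treatment with test chemical, then held in a greenhouse for twelve to sixteen days. Injury was visually rated against untreated controls on a 0–10 scale, where 0 is no effect and 10 is complete control.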
# bamyardgrass = experiment: Test B flood test barnyardgrass; assay type: in vivo, Echinochloa crus-galli
# Procedure, shortened: as §2
# [1] = Postemergence, Rate 31 g/ha, visual rating, scale 0 to 10 (0 no effect, 10 complete control)
# [2] = Postemergence, Rate 250 g/ha, scale 0 to 10
# [3] = Preemergence, Rate 31 g/ha, visual rating, scale 0 to 10 (0 no effect, 10 complete control)
# [4] = Preemergence, Rate 250 g/ha, scale 0 to 10, 0 is no effect, 10 is complete control
# [5] = Rate 62 g/ha, Postemergence, scale 0 to 10 (0 no effect, 10 complete control)
# [6] = Rate 125 g/ha, Postemergence, scale 0 to 10, 0 is no effect, 10 is complete control
# [7] = Rate 31 g/ha, Pre-emergence section (flood test species), scale 0 to 10
# [8] = Rate 62 g/ha, flood test species, Pre-emergence, visual evaluation after twelve to sixteen days
# [9] = Rate 125 g/ha, under heading Pre-emergence, flood test species, visual evaluation after twelve to sixteen days
# [10] = Rate 250 g/ha, Pre-emergence (flood test species), scale 0 to 10, 0 is no effect, 10 is complete control
smiles,measurement,setting,value
CC(C)N(C(=O)n1oc(=O)n(CC2=NOCCC2)c1=O)c1ccc(Cl)cc1 [Compound 450],Bedstraw plant response rating,bedstraw,0
same,Blackgrass plant response rating,blackgrass; [1],0
same,Blackgrass plant response rating,blackgrass; [2],2
same,Blackgrass plant response rating,blackgrass; [3],0
same,"Plant response rating, Blackgrass","blackgrass; Preemergence, Rate 62 g/ha",0
same,"Plant response rating, Blackgrass","blackgrass; Preemergence, Rate 125 g/ha",2
same,Blackgrass plant response rating,blackgrass; [4],4
same,Blackgrass plant response rating,blackgrass; [5],0
same,Blackgrass plant response rating,blackgrass; [6],0
same,B. signalgrass plant response rating,surinam grass; [1],0
same,B. signalgrass plant response rating,"surinam grass; Postemergence, Rate 250 g/ha, scale 0 to 10, 0 no effect, 10 complete control",0
same,B. signalgrass plant response rating,surinam grass; [3],0
same,"Plant response rating, B. signalgrass","surinam grass; Preemergence, Rate 62 g/ha",0
same,"Plant response rating, B. signalgrass","surinam grass; Preemergence, Rate 125 g/ha",1
same,B. signalgrass plant response rating,surinam grass; [4],3
same,B. signalgrass plant response rating,surinam grass; [5],0
same,B. signalgrass plant response rating,surinam grass; [6],0
same,Cocklebur plant response rating,cocklebur; [1],0
same,Cocklebur plant response rating,cocklebur; [2],0
same,Cocklebur plant response rating,cocklebur; [3],0
same,"Plant response rating, Cocklebur","cocklebur; Preemergence, Rate 62 g/ha",0
same,"Plant response rating, Cocklebur","cocklebur; Preemergence, Rate 125 g/ha",0
same,Cocklebur plant response rating,cocklebur; [4],0
same,Cocklebur plant response rating,cocklebur; [5],0
same,Cocklebur plant response rating,cocklebur; [6],0
same,Corn plant response rating,corn; [1],0
same,Corn plant response rating,corn; [2],0
same,Corn plant response rating,corn; [3],0
same,"Plant response rating, Corn","corn; Preemergence, Rate 62 g/ha",0
same,"Plant response rating, Corn","corn; Preemergence, Rate 125 g/ha",0
same,Corn plant response rating,corn; [4],0
same,Corn plant response rating,corn; [5],0
same,Corn plant response rating,corn; [6],0
same,Crabgrass plant response rating,crabgrass; [1],0
same,Crabgrass plant response rating,crabgrass; [2],4
same,Crabgrass plant response rating,crabgrass; [3],0
same,"Plant response rating, Crabgrass","crabgrass; Preemergence, Rate 62 g/ha",2
same,"Plant response rating, Crabgrass","crabgrass; Preemergence, Rate 125 g/ha",7
same,Crabgrass plant response rating,crabgrass; [4],8
same,Crabgrass plant response rating,crabgrass; [5],0
same,Crabgrass plant response rating,crabgrass; [6],2
same,Redroot pigweed plant response rating,pigweed; [1],0
same,Redroot pigweed plant response rating,pigweed; [2],0
same,"Plant response rating, Redroot pigweed","pigweed; Preemergence, Rate 62 g/ha",0
same,"Plant response rating, Redroot pigweed","pigweed; Preemergence, Rate 125 g/ha",4
same,Redroot pigweed plant response rating,pigweed; [4],7
same,Redroot pigweed plant response rating,pigweed; [5],0
same,Redroot pigweed plant response rating,pigweed; [6],0
same,Rape plant response rating,rape; [1],0
same,Rape plant response rating,rape; [2],0
same,"Plant response rating, Rape","rape; Preemergence, Rate 62 g/ha",0
same,"Plant response rating, Rape","rape; Preemergence, Rate 125 g/ha",0
same,Rape plant response rating,rape; [4],0
same,Rape plant response rating,rape; [5],0
same,Rape plant response rating,rape; [6],0
same,Soybean plant response rating,soybean; [1],0
same,Soybean plant response rating,soybean; [2],1
same,"Plant response rating, Soybean","soybean; Preemergence, Rate 62 g/ha",0
same,"Plant response rating, Soybean","soybean; Preemergence, Rate 125 g/ha",0
same,Soybean plant response rating,soybean; [4],3
same,Soybean plant response rating,soybean; [5],1
same,Soybean plant response rating,soybean; [6],1
same,Sugarbeets plant response rating,sugar beet; [1],0
same,Sugarbeets plant response rating,sugar beet; [2],0
same,"Plant response rating, Sugarbeets","sugar beet; Preemergence, Rate 62 g/ha",0
same,"Plant response rating, Sugarbeets","sugar beet; Preemergence, Rate 125 g/ha",0
same,Sugarbeets plant response rating,sugar beet; [4],0
same,Sugarbeets plant response rating,sugar beet; [5],0
same,Sugarbeets plant response rating,sugar beet; [6],0
same,Velvetleaf plant response rating,velvetleaf; [1],0
same,Velvetleaf plant response rating,velvetleaf; [2],2
same,"Plant response rating, Velvetleaf","velvetleaf; Preemergence, Rate 62 g/ha",0
same,"Plant response rating, Velvetleaf","velvetleaf; Preemergence, Rate 125 g/ha",0
same,Velvetleaf plant response rating,velvetleaf; [4],0
same,Velvetleaf plant response rating,velvetleaf; [5],0
same,Velvetleaf plant response rating,velvetleaf; [6],Velvetleaf 0
same,Wheat plant response rating,wheat; [1],0
same,Wheat plant response rating,wheat; [2],0
same,"Plant response rating, Wheat","wheat; Preemergence, Rate 62 g/ha",0
same,"Plant response rating, Wheat","wheat; Preemergence, Rate 125 g/ha",0
same,Wheat plant response rating,wheat; [4],0
same,Wheat plant response rating,wheat; [5],0
same,Wheat plant response rating,wheat; [6],0
same,Wild oats plant response rating,wild oat; [1],0
same,Wild oats plant response rating,wild oat; [2],0
same,"Plant response rating, Wild oats","wild oat; Preemergence, Rate 62 g/ha",0
same,"Plant response rating, Wild oats","wild oat; Preemergence, Rate 125 g/ha",0
same,Wild oats plant response rating,wild oat; [4],0
same,Wild oats plant response rating,wild oat; [5],0
same,Wild oats plant response rating,wild oat; [6],0
same,Nutsedge plant response rating,purple nutsedge; [1],0
same,Nutsedge plant response rating,purple nutsedge; [2],0
same,"Plant response rating, Nutsedge","purple nutsedge; Preemergence, Rate 62 g/ha",0
same,"Plant response rating, Nutsedge","purple nutsedge; Preemergence, Rate 125 g/ha",0
same,Nutsedge plant response rating,purple nutsedge; [4],0
same,Nutsedge plant response rating,purple nutsedge; [5],0
same,Nutsedge plant response rating,purple nutsedge; [6],0
same,S. Flatsedge plant response rating,smallflower flatsedge; [7],0
same,"Plant response rating, S. Flatsedge (0 to 10 scale, 0 is no effect, 10 is complete control)",smallflower flatsedge; [8],0
same,"S. Flatsedge plant response rating (0 to 10 scale, 0 is no effect, 10 is complete control)",smallflower flatsedge; [9],0
same,S. Flatsedge plant response rating,smallflower flatsedge; [10],0
same,Barnyardgrass plant response rating,bamyardgrass; [7],0
same,"Plant response rating, Barnyardgrass (0 to 10 scale, 0 is no effect, 10 is complete control)",bamyardgrass; [8],0
same,"Barnyardgrass plant response rating (0 to 10 scale, 0 is no effect, 10 is complete control)",bamyardgrass; [9],0
same,Barnyardgrass plant response rating,bamyardgrass; [10],0
